# From BindingDB's records for PubMed 9023294 (Sanofi Recherche, 1997)
# Key:
# Neurotensin = Neurotensin (Cavia porcellus, UniProt P32560)
# Neurotensin/neuromedin N = biological target: T1, Neurotensin/neuromedin N (Human, UniProt P30990)
# T1 sequence (P30990 whole entry): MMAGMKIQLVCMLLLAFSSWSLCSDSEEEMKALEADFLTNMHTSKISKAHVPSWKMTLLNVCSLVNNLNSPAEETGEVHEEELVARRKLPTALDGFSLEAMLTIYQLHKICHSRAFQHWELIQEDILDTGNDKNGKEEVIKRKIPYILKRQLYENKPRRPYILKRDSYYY
Ki (Neurotensin) [nM],Ki (Neurotensin/neuromedin N) [nM],Compound
3.9,,COc1cccc(OC)c1-c1cc(C(=O)NC2(C(=O)O)C3CC4CC(C3)CC2C4)nn1-c1ccnc2cc(Cl)ccc12 (stereo not drawn)
0.17,0.28,COc1cccc(OC)c1-c1cc(C(=O)NC2(C(=O)O)C3CC4CC(C3)CC2C4)nn1-c1ccc(C(=O)N(C)CCCN(C)C)cc1C(C)C (stereo not drawn) [SR142948A]
